We go through five molecules from ChEMBL document CHEMBL1671825, “Synthesis and in Vitro and in Vivo Evaluation of Phosphoinositide-3-kinase Inhibitors” (ACS Med Chem Lett, 2011).

Broadly, the half-life is the time needed for the level to fall by half in the phase considered. As usually defined, the bioavailability is the share of a dose that reaches the circulation, judged against a reference dose that is usually intravenous. A higher bioavailability goes with good availability. As a reminder, the AUC is the area under the concentration-time curve, a measure of exposure. Read a high AUC as high exposure.

Type in all cases: ADME, organism-based
Data set [1] can be described thus: Clearance in mouse at 5 mg/kg, iv and 10 mg/kg, po. The conditions noted are these: in vivo.
A short description of data set [2]: Half life in mouse at 10 mg/kg, po. Also noted: dose 10 mg/kg, route oral. As to conditions: in vivo.
Data set [3] can be described thus: Oral bioavailability in mouse at 10 mg/kg. As to conditions: in vivo.
Data set [4] is described as follows: Volume of distribution at steady state in mouse at 5 mg/kg, iv and 10 mg/kg, po. As to conditions: in vivo, read-out: Vdss.
Data set [5] can be described thus: AUC in mouse at 10 mg/kg, po. Details: dose 10 mg/kg, route oral. The conditions noted are these: plasma.
A short description of data set [6]: Volume of distribution at steady state in rat at 5 mg/kg, iv and 20 mg/kg, po. The conditions noted are these: in vivo, read-out: Vdss.
Data set [7] in a line: Half life in rat at 5 mg/kg, iv. Details: dose 5 mg/kg, route intravenous. The conditions noted are these: in vivo.
Data set [8] is described as follows: Oral bioavailability in rat at 20 mg/kg. The conditions noted are these: in vivo.
Data set [9] can be described thus: AUC in rat at 20 mg/kg, po. Details: dose 20 mg/kg, route oral. The conditions noted are these: plasma.
Data set [10] can be described thus: Clearance in rat at 5 mg/kg, iv and 20 mg/kg, po. As to conditions: in vivo.

In the case of `COc1ccc(Nc2cc(-c3cnc(N)nc3)nc(N3CCOCC3)n2)cn1`, the clearance in data set [1] came to 5.94 L/h/kg. In [2], this molecule came in with a half-life of 282 min. The bioavailability in data set [3] turned out to be 87%. The Vd in [4] is 1.1 L/kg. The same molecule came in with an AUC in data set [5] of 2 µM·h.

Consider `Nc1ncc(-c2cc(Nc3cnc4ccccc4c3)nc(N3CCOCC3)n2)cn1`, for which the Vd in data set [6] is 1.9 L/kg. The half-life in data set [7] turned out to be 43 min. Also, in data set [8], the bioavailability turned out to be 23%. This molecule gave an area under the curve (AUC) in [9] of 6 µM·h. Further, the clearance in data set [10] is 2.22 L/h/kg.

Consider `c1cncc(-c2cc(Nc3cnc4ccccc4c3)nc(N3CCOCC3)n2)c1`, for which, in [6], the Vd is 2.4 L/kg. Also, the half-life in data set [7] amounted to 55 min. The bioavailability in data set [8] amounted to 46%. The area under the curve (AUC) in data set [9] came out at 16 µM·h. In data set [10], this molecule showed a clearance of 1.56 L/h/kg.

For the molecule `Oc1cccc(-c2cc(Nc3cnc4ccccc4c3)nc(N3CCOCC3)n2)c1`, the Vd in data set [6] was found to be 6.9 L/kg. For the same molecule, in [7], the half-life was found to be 30 min. Moreover, in data set [8], the bioavailability was found to be 1%. The molecule also had an AUC in [9] of 0.03 µM·h. The molecule also returned a clearance in [10] of 10.7 L/h/kg.

For the molecule `Nc1ccc(-c2cc(Nc3cnc4ccccc4c3)nc(N3CCOCC3)n2)cn1`, the Vd in data set [6] turned out to be 0.8 L/kg. The half-life in data set [7] turned out to be 103 min. Moreover, the bioavailability in [8] came to 56%. The same molecule gave an exposure (AUC) in [9] of 93 µM·h. In data set [10], this molecule registered a clearance of 0.3 L/h/kg.
